The subject of data set [1] is Mus musculus.
Data set [2] relates to Rattus norvegicus. To be noted: for LD50: acute, oral, mortality.
Data set [3] deals with Apis mellifera. To be noted: acute, mortality.
The test system of data set [4] is Bibionidae. The conditions noted are these: chronic/long-term; duration: 28 days; other.
The test system of data set [5] is Canidae. To be noted: chronic; duration: 1 years; oral; Dog Other; organ weight.
The subject of data set [6] is Colinus virginianus.
Data set [7] relates to Cyprinodon variegatus. To be noted: acute; duration: 96 hours; mortality.
Data set [8] concerns Daphnia magna. The conditions noted are these: chronic/long-term; duration: 21 days; reproduction.
For data set [9], the system named is Hypoaspis aculeifer. The conditions noted are these: chronic/long-term; duration: 16 days; mortality.
Data set [10] concerns Oncorhynchus mykiss. The conditions noted are these: chronic/long-term; duration: 90 days; development.
For data set [11], the system named is Tagia sp.
Data set [12] relates to Typhlodromus pyri. Briefly: LR50; higher = less toxic. To be noted: chronic/long-term; duration: 7 days; mortality.

Consider three compounds from EPA's ToxValDB 9.5 (doi:10.2903/j.efsa.2013.3143).

The NOAEL is the highest dose or exposure tested at which no adverse effect was seen.

Structures are written as SMILES. “And” between values parts separate entries of the source, which are not always exact repeats. Equal values may be shown once.

Consider `CNC(=O)c1cc(Br)[nH]n1` [5-Bromo-N-methyl-1H-pyrazole-3-carboxamide], for which, in data set [1] (acute, oral, mortality), the LD50 is above 2000 mg/kg-day.

As for `Cc1cc(Cl)cc2c(=O)n(C)c(-c3cc(Br)[nH]n3)nc12` [Chlorantraniliprole metabolite (IN-LBA24)], the LD50 in [2] was above 2000 mg/kg-day.

With `CNC(=O)c1cc(Cl)cc(C)c1NC(=O)c1cc(Br)nn1-c1ncccc1Cl` [Chlorantraniliprole], the LD50 is above 104 µg/piece in data set [3] (duration: 48 hours, oral, unspecified); above 4 µg/piece in data set [3] (duration: 72 hours, dermal); above 2250 mg/kg-day in data set [6] (acute, oral, mortality); above 5000 mg/kg-day in data set [2]. The NOEC in data set [4] was 0.0025 mg/L and 0.005 mg/kg; in data set [8], 0.00447 mg/L; in data set [9] it was 100 mg/kg; in [10], 0.11 mg/L; in data set [11] (chronic/long-term, duration: 56 days, reproduction), 1000 mg/kg. Moreover, the NOAEL in data set [5] is 278 mg/kg-day; in [6] (reproduction developmental, reproduction) it was 10.1 mg/kg-day; in [1] (chronic, duration: 18 months, histopathology: nonneoplastic), 158 mg/kg-day; in data set [2] (chronic, duration: 2 years, organ weight), 156 mg/kg-day; in [2] (reproduction developmental, no effects), 1200 mg/kg-day. The LC50 in data set [6] (acute, oral, diet, mortality) is above 1730 mg/kg-day; in [7], above 12 µg/mL; in data set [11] (acute, duration: 14 days, mortality) it was above 1000 mg/kg. This compound also gave an LR50 in data set [12] above 750 g/ha.
